A short description of series [1]: Rat cerebrospinal fluid (CSF) pharmacokinetic properties. Type of series: in vivo. To be noted: compounds in Table IA; for concentration at 1 h: CSF, male Sprague-Dawley rats, PO 10 mg/kg in PEG400, 1 h post-dosing, read-out: CSF Conc. (nM @ 1 h); for Kp uu at 1 h: male, Sprague-Dawley, CSF and plasma (unbound), unbound CSF/unbound plasma ratio, rats, PO 10 mg/kg. The procedure:
PK in rats was determined following oral dosing. For the oral (PO) experiments, a group of 6 male Sprague-Dawley rats with an indwelling catheter placed in the cisterna magna were used. The PO group was dosed with 3 or 10 mg/kg of a compound formulated as a solution in PEG400. PO doses were administered by oral gavage and delivered to the stomach using a syringe and gavage tube. Following oral dosage administration, the gavage tube was flushed with approximately 0.5 mL of water to ensure complete delivery of the full dose.
Plasma and CSF samples were collected as follows: samples of CSF and blood were collected at 1 hour and 2 hours post-dosing. CSF samples (0.05 mL) were collected through the intracisternal catheter. Blood samples (0.25 mL) were collected through retro-orbital sampling. These samples were kept on ice until processed for plasma. Blood samples were centrifuged at 3200 rpm for 5 minutes at approximately 5° C. within 1 hour of collection. Plasma was directly transferred to a 96-well plate tube (0.125 mL). Plug caps were placed on the tubes and the tubes frozen at approximately −70° C. and stored until analysis.
Plasma was collected and analyzed for the presence of compound.
The compound in question and the internal standard were extracted from plasma and CSF by precipitation. Samples were analyzed using liquid chromatography (LC) with tandem mass spectrometric detection (MS/MS) using electrospray ionization. The standard curve range was from 1 to 1000 ng/mL. Results of the compounds described herein in this assay are illustrated in Tables 4A (for compounds in Table IA) and 4B (for compounds in Table IB) below.
Kp,uu is defined as the concentration ratio of unbound drug in CSF to unbound drug in plasma. Unbound drug in plasma (or free plasma concentration) is calculated by multiplying the total plasma concentration by the unbound fraction as determined by plasma protein binding. The CSF concentration is then divided by the free plasma concentration to determine the Kp,uu. (See e.g., Di et al., J. Med. Chem., 56, 2-12 (2013))

In the next series the target is T1, sGC (Rattus norvegicus, UniProt P20595).
T1 construct: Rat primary neurons were isolated from fetuses of 18-day pregnant Sprague-Dawley females; endogenous in cells; host or cells: Primary rat hippocampal neurons (E18 Sprague-Dawley fetuses)
T1 sequence (P20595 1-619): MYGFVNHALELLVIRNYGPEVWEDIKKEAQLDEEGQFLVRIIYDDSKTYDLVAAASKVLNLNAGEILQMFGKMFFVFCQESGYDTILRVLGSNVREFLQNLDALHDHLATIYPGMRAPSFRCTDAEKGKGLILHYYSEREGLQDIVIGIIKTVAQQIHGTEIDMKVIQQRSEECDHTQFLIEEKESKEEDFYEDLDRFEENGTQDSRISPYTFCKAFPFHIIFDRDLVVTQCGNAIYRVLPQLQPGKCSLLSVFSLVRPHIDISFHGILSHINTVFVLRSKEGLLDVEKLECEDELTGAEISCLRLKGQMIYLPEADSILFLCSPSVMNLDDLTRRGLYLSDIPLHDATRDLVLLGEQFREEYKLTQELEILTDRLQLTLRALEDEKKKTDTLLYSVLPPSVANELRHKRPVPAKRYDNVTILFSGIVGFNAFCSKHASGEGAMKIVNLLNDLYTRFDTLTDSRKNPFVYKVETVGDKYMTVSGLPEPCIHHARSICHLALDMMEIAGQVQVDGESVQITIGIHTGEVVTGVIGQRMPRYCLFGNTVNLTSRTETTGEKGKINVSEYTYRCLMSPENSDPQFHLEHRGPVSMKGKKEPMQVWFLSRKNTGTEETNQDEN
Nature of the series: cGMP neuronal cell-based assay. To be noted: rat primary hippocampal neurons; 30 μM DETA-NO; cGMP by LC-MS/MS; normalized to 10 μM Compound Y; compounds in Table IA; read-out: sGC-neuron Abs EC50. The protocol: Rat primary neurons were isolated from fetuses of 18-day pregnant Sprague-Dawley females. The fetuses were collected in Hanks' balanced salt solution (HBSS) and brains were rapidly removed. The cerebral hippocampi were isolated and mechanically fragmented. Further tissue digestion was performed with 0.25% (wt/vol) trypsin solution in HBSS without Ca2+ and Mg2+ for 15 min at 37° C. After trypsination, cells were washed and resuspended in neurobasal medium supplemented with 0.5 mM L-glutamine, 12.5 uM glutamic acid, 2% B-27 and 100U/mL penicillin, and 100 μg/mL streptomycin. Cells were plated at a density of 4×10^4 cells/well in a poly-D-lysine coated 384-well flat clear-bottom plate (Corning Cat No 354662). Cells were incubated 6-7 days at 37° C. in a humidified chamber with 5% CO2. Media was removed and cells were washed 1× with HBSS containing Ca2+ and Mg2+, and replaced with 40 uL HBSS containing 0.5 mM IBMX, and incubated for 15 minutes at 37° C. 10 uL of a 5× stock of test compounds with diethylenetriamine NONOate (DETA-NO) was added. Final concentration of DETA-NO was 30 μM. Cells were incubated for 20 min at 37° C. Medium was removed, 50 uL of ice-cold 10% acetic acid was added, and incubated for 60 minutes at 4° C. Following centrifugation at 4° C. for 5 minutes at 1000×g to pellet cell debris, the supernatant was aspirated to a clean plate and the samples were analyzed for cGMP content. cGMP concentrations were determined from each sample using LC-MS/MS.
Data were normalized to a high control using the following equation: 100*(Sample−Low Control)/(High Control−Low Control), where the low control is the average of 15 samples treated with 1% DMSO, and the high control is the average of 15 samples treated with 10 μM of the known sGC stimulator Compound Y (depicted in Example 2). Data were fit using a 4-parameter fit (log(agonist) vs. response—variable slope) using GraphPad Prism Software v.5. n=2 for all compounds. The Absolute EC50 was interpolated from the curve fit and is defined as the concentration at which a given compound elicits 50% of the high control response after data normalization. Compounds failing to elicit a minimum response of 50% are reported as >30 μM. For compounds run in duplicate or n higher than 2, the result herein given is the geometric mean of the several results obtained.

pEC50: −log10 of the molar value. Some results are limits rather than exact numbers.

As usually defined, the pEC50 is the negative decadic logarithm of the EC50, by convention in mol/L.

For `FC(F)(F)c1n[nH]c(-c2nn(CCC(F)(F)C(F)(F)F)c3ncccc23)n1` [Compound I-2, 1-(3,3,4,4,4-pentafluorobutyl)-3-(3-(trifluoromethyl)-1H-1,2,4-triazol-5-yl)-1H-pyrazolo[3,4-b]pyridine], in series [1], the concentration at 1 h stood at 16.6 nM and the Kp uu at 1 h is 0.24. For the same compound, the pEC50 at sGC was not below 7.00.

For the compound `FC(F)(F)c1n[nH]c(-c2nn(Cc3cncnc3)c3ncccc23)n1` [Compound I-4, 1-(Pyrimidin-5-ylmethyl)-3-(3-(trifluoromethyl)-1H-1,2,4-triazol-5-yl)-1H-pyrazolo[3,4-b]pyridine], in series [1], the concentration at 1 h came out at 79.5 nM and the Kp uu at 1 h turned out to be 1.98. For the same compound, on sGC, the pEC50 was not below 7.00.

Regarding `Fc1ccccc1Cc1nn(-c2nc(C(F)(F)F)n[nH]2)c2cccnc12` [Compound I-31, 3-(2-Fluorobenzyl)-1-(3-(trifluoromethyl)-1H-1,2,4-triazol-5-yl)-1H-pyrazolo[4,3-b]pyridine], in series [1], the concentration at 1 h was 66.6 nM and the Kp uu at 1 h was found to be 3.84. Besides, the pEC50 at sGC is not below 7.00.

In the case of `N#Cc1n[nH]c(-c2nn(Cc3ccccc3F)c3ncccc23)n1` [Compound I-41], in series [1], the concentration at 1 h worked out at 26.6 nM and the Kp uu at 1 h amounted to 0.36. For the same compound, at sGC, the pEC50 is not below 7.00.

On to `Fc1cccc(Cn2nc(-c3nc(C(F)(F)F)n[nH]3)c3cccnc32)c1F` [Compound I-48, 1-(2,3-Difluorobenzyl)-3-(3-(trifluoromethyl)-1H-1,2,4-triazol-5-yl)-1H-pyrazolo[3,4-b]pyridine], for which, in series [1], the concentration at 1 h was found to be 41.6 nM and the Kp uu at 1 h worked out at 2.52. The pEC50 at sGC is not below 7.00.

In the case of `FC(F)(F)c1n[nH]c(-c2nn(Cc3ccccc3)c3ncccc23)n1` [Compound I-49, 1-Benzyl-3-(3-(trifluoromethyl)-1H-1,2,4-triazol-5-yl)-1H-pyrazolo[3,4-b]pyridine], in series [1], the concentration at 1 h came out at 172 nM and the Kp uu at 1 h was 1.57. For the same compound, the pEC50 at sGC was not below 7.00.

Turning to `Cc1ncc(Cn2nc(-c3nc(C(F)(F)F)n[nH]3)c3ccccc32)cn1` [Compound I-62, 1-((2-methylpyrimidin-5-yl)methyl)-3-(3-(trifluoromethyl)-1H-1,2,4-triazol-5-yl)-1H-indazole], in series [1], the concentration at 1 h was determined as 83 nM and the Kp uu at 1 h was 0.62. For the same compound, the pEC50 on sGC is not below 7.00.

Consider `OCc1n[nH]c(-c2nn(Cc3ccccc3F)c3ncccc23)n1` [Compound I-64, (5-(1-(2-fluorobenzyl)-1H-pyrazolo[3,4-b]pyridin-3-yl)-1H-1,2,4-triazol-3-yl)methanol], for which, in series [1], the concentration at 1 h was found to be 13.1 nM and the Kp uu at 1 h came to 0.54. Besides, at sGC, the pEC50 is not below 7.00.

`Fc1cccc(Cn2nc(-c3nc(Cl)n[nH]3)c3cccnc32)c1F` [Compound I-86, 3-(3-Chloro-1H-1,2,4-triazol-5-yl)-1-(2,3-difluorobenzyl)-1H-pyrazolo[3,4-b]pyridine]: in series [1], the concentration at 1 h was 31.5 nM and the Kp uu at 1 h worked out at 2.41. Further, on sGC, the negative logarithm of the EC50 (pEC50) is not below 7.00.

`Fc1ccccc1Cn1nc(-c2nc(C3CC3(F)F)n[nH]2)c2cccnc21` (stereo not drawn) [Compound I-96, 3-(3-(2,2-Difluorocyclopropyl)-1H-1,2,4-triazol-5-yl)-1-(2-fluorobenzyl)-1H-pyrazolo[3,4-b]pyridine]: in series [1], the concentration at 1 h was 21.5 nM and the Kp uu at 1 h is 1.54. On sGC, the pEC50 is not below 7.00.

In the case of `Fc1ccccc1Cc1nn(-c2nc(C(F)F)n[nH]2)c2cccnc12` [Compound I-101, 1-(3-(Difluoromethyl)-1H-1,2,4-triazol-5-yl)-3-(2-fluorobenzyl)-1H-pyrazolo[4,3-b]pyridine], in series [1], the concentration at 1 h is 104 nM and the Kp uu at 1 h was found to be 2.81. In addition, the pEC50 at sGC is not below 7.00.

Consider `Fc1cccc(Cc2nn(-c3nc(C(F)(F)F)n[nH]3)c3cccnc23)c1F` [Compound I-105, 3-(2,3-Difluorobenzyl)-1-(3-(trifluoromethyl)-1H-1,2,4-triazol-5-yl)-1H-pyrazolo[4,3-b]pyridine], for which, in series [1], the concentration at 1 h amounted to 17.4 nM and the Kp uu at 1 h worked out at 2.2. Also, the pEC50 at sGC is not below 7.00.

(Values after patent US12435080B2, “sGC stimulators” (Tisento Therapeutics Inc., priority 2016, dated 2025).)
